From patent US20250340511A1, “CELLULOSE SYNTHASE INHIBITORS AS A NEW CLASS OF HERBICIDE AND NON-GMO CROPS THAT ARE RESISTANT TO THE HERBICIDE” (Purdue Research Foundation, priority 2017, published 2025)
Like-named read-outs stand apart in the source and are kept apart here.

What was measured:
[1] = tested on: wildtype Arabidopsis seedlings; assay: Arabidopsis seedling root growth on media supplemented with compound; assay type: in vivo, Arabidopsis thaliana; settings: for activity at 1 µM: Arabidopsis thaliana
Protocol: FIG. 2A. […] FIG. 2B. […] FIG. 2C. Quantification on the root length of 6 days old wildtype and mutant seedlings grown on growth media supplemented with DMSO solvent control. FIG. 2D. […] FIG. 2E. The ratio of root length from plants grown on 1 μM ES20 and those grown on DMSO for each genotype. The root length of wildtype plants grown on 1 μM ES20 was reduced to about 25% of those grown on DMSO. […] FIG. 2F.
The root length of wildtype plants grown on 1 μM ES20 is about 20% of those that are grown on normal media.
Individual hypocotyl epidermal cells from plants grown on ES20 media are swollen as well in compare with those grown on regular media (FIG. 1H). These growth assays indicate that ES20 inhibits cell growth and causes cells to grow in an isotropic manner instead of anisotropic manner. The composition and organization of cell wall determines plant cell shapes.
In order to identify the cell growth pathways that are targeted by ES20, we performed a chemical genetic screen for mutants that have reduced sensitivity to this growth inhibitor. […] However, we found plants that have normal green cotyledons and leaves and elongated roots. These plants became obviously heathier and stronger than other plants after two weeks of growth on ES20 and were transferred to soil to get the M3 population. […] We generated the mapping population and used high-throughput whole genome sequencing to clone the mutant genes. […] 10 out of the 12 mutants were in CesA6 and two in CesA7. After two times of backcrosses, we consistently detected less sensitivity in these mutants to ES20 (FIGS. 2A to 2E).
In order to identify key structure in ES20 that causes its inhibition activity, we collected three close analogs of ES20 (FIG. 7A) and tested for their effect in inhibiting plant growth.

[2] = tested on: general membrane trafficking (PIN2, BRI1, HDEL-GFP, Gop1p-YFP, SYP61-CFP, VHA1-GFP); assay: live cell imaging of fluorescence-tagged cargo and organelle markers; assay type: cell-based, Arabidopsis
Protocol: Transgenic plants expressing different fluorescence-tagged proteins were examined for their cellular localization in the DMSO control treatment and after 2 hours of 5 μM ES20 treatment.
(§1) In order to identify small molecules that could be used in studying plant membrane trafficking, chemical libraries have been screened first using tobacco pollen growth assay and then Arabidopsis live cell imaging assay (Drakakaki G. et al., Proc Natl Acad Sci USA 2011, 108, 17850-17855). In primary screen, small molecules that inhibited pollen gemination or pollen tube growth in in vitro culture condition were selected. For secondary screen, selected small molecules were tested in Arabidopsis plants expressing different fluorescence-tagged cellular markers. […] Locations of general organelle markers, such as HDEL-GFP (Endoplasmic Reticulum, ER), Gop1p-YFP (Golgi), SYP61-CFP (Trans-Golgi Network, TGN) and VHA1-GFP (TGN), are unaffected as well by ES20 treatment (FIGS. 9A and 9B).

[3] = tested on: CSC (YFP-CesA6) trafficking in root epidermal cells; assay: YFP-CesA6 localization and FRAP after short-term ES20 treatment; assay type: cell-based, Arabidopsis
Description: FIGS. 5A and 5B. […] FIGS. 5C and 5D. […] FIGS. 5E and 5F. The exocytic delivery of CSC to the plasma membrane was reduced after ES20 treatment. *** indicates p<0.001 by paired t-test.
A large knowledge gap in plant biology is that it is […] how the activities of large protein complexes, such as CSC, are integrated with their cellular transport. Golgi localized CSCs are delivered to the plasma membrane to catalyze cellulose synthesis. CSCs are also localized to some small vesicles named SmaCCs. It is not known what occurs to CSCs when the catalytic core fails to bind a functional substrate. In order to understand better on the integration of CSC catalytic activity and CSC trafficking, we took a straight approach and observed the localization of CesA6 after short-term ES20 treatment. […] Reduced CSC density at the plasma membrane and increased SmaCCs density could be the result of increased endocytosis or decreased exocytic delivery of CSC. We then performed fluorescence recovery after photobleaching experiment to test whether the exocytic delivery of CSC was affected by ES20 treatment. We bleached YFP-CesA6 fluorescence at the plasma membrane and then observed the delivery of new CSC to the plasma membrane (FIG. 5D).

[4] = tested on: any1 (CesA1 D604N) plants; assay: growth response of any1 mutant to ES20; assay type: in vivo, Arabidopsis
Description: (§2) FIG. 6A. Seedlings of Wildtype and fra5 grown on growth media supplemented with DMSO or ES20. FIG. 6B. Seedlings of Wildtype and any1 grown on growth media supplemented with DMSO or ES20. FIGS. 6C, 6D, 6E and 6F depict quantification on the growth of wildtype, […] and any/in the presence or absence of ES20.
(§3) Due to the conservation of plant CesAs in their central cytoplasmic domains, we hypothesized that ES20 targeted multiple CesAs to inhibit growth. In order to test this hypothesis, we tested the response of fra5 and any/to ES20. The mutant fra5 carries a mutation of P557T in Arabidopsis thaliana CesA7. CesA7 P557 aligns to CesA6 P595. […] The mutant any/carries a mutation of D604N in Arabidopsis CesA1. D604 in CesA1 aligns to D605 in CesA6.

[5] = tested on: cesa6 E929K mutant and transgenic plants that express CesA6 E929K in wildtype; assay: root growth of cesa6 E929K mutant and CesA6 E929K transgenic plants; assay type: in vivo; settings: Arabidopsis thaliana; 1 μM of ES20; read-out: root length relative to plants grown on normal media
Description: The root length of […] mutant and transgenic plants that express CesA6^E929K in wildtype is about 80% of those grown on normal media.
The mutations we found are located in Arabidopsis thaliana CesA6 (AT5G64740), CesA4 (AT5G44030), CesA7 (AT5G17420) and CesA8 (AT4G18780) genes. Single nucleotide change in these mutants causes single amino acid change in CesA proteins and lead to reduced sensitivity to cellulosin (endosidin20 or ES20). The mutations we have discovered are listed in Table 1 and FIG. 11A showing the conserved amino acid residues of those subtypes of cellulose synthases. […] One is to create mutations in CesA6 homology gene in crop. The second is to express the mutant CesA6 in crops without knocking out endogenous CesA genes.

[6] = target: T1, CesA6 central cytoplasmic domain (Arabidopsis thaliana, UniProt Q94JQ6); assay: biochemical; assay type: binding; settings: MST; SUMO-His / GFP tagged CesA6 central cytoplasmic domain purified from E. coli; read-out: dissociation constant (Kd)
T1 construct: we expressed and purified the central cytoplasmic domain of CesA6 from E. coli; made in house; host or cells: E. coli
T1 sequence (Q94JQ6 322-868 limits assumed): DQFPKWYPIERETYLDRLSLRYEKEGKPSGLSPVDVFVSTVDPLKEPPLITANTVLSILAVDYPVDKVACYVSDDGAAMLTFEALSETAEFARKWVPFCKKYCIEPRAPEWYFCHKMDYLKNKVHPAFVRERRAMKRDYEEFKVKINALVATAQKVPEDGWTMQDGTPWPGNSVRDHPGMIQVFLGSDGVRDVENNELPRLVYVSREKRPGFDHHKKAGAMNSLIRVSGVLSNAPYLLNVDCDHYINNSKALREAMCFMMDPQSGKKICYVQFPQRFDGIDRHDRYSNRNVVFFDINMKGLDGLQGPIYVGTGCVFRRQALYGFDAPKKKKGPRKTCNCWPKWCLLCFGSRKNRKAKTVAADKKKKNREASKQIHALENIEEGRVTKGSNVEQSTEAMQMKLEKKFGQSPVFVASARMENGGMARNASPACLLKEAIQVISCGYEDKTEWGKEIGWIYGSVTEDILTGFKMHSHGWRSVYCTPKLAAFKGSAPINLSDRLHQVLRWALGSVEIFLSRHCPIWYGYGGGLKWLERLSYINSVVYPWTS

[7] = tested on: fra5 (CesA7 P557T) plants; assay: growth response of fra5 mutant to ES20; assay type: in vivo, Arabidopsis thaliana
Description: as §2, §3

tobacco pollen tube = assay: tobacco pollen growth assay; assay type: cell-based; settings: in vitro culture
Protocol: as §1

horseweed = horseweed growth on media containing ES20; assay type: in vivo; settings: grown on growth media containing ES20
Description: (§4) FIG. 8B depicts 16-day-old tomato and horseweed grown on the media in the absence and presence of Cellulosin. Bars, 1 cm.
(§5) Because cellulose synthase is highly conserved in plants and ES20 targets the conserved catalytic domain, we hypothesize that ES20 is active in different plants, including common weeds. We tested this hypothesis by growing tomato and horseweed on growth media containing ES20.

tomato = tomato growth on media containing ES20; assay type: in vivo; settings: grown on growth media containing ES20
Description: as §4, §5

[8] = tested on: dark-grown Arabidopsis hypocotyls; assay: crystalline cellulose content in dark-grown seedlings; assay type: in vivo, Arabidopsis thaliana; settings: concentration printed as 'M ES20'
Description: Swollen cells and organs in plants are often caused by direct or indirect disruption of cell wall biosynthesis or organization. For example, swollen cells and roots have been found in cesa mutants and in plants treated with inhibitors of cellulose synthesis and microtubule organization (Arioli, T., et al., Science 1998, 279, 717-720; Burn, J. E., et al., Plant Physiol. 2002, 129, 797-807). The retarded growth and cell swollen phenotypes indicate that ES20 could affect cell growth through interfering with cell wall biosynthesis or organization. To test whether ES20 affects cell wall composition, we took the straightforward approach of analyzing crystallize cellulose content in seedlings grown in the presence of different concentrations of ES20 (Updegraff, D. M. Anal. Biochem. 1969, 32, 420-424). […] The content of crystalline cellulose in seedlings grown on M ES20 was reduced to about 50% of the seedlings grown in the absence of ES20 (FIG. 1J).

SMILES: COc1ccc(C(=O)NC(=S)NNC(=O)c2ccccc2C)cc1 [ES20]
- root phenotype after short-term treatment ([1]; 5 μM for 12 hours in liquid growth media): roots became swollen in the tip region
- activity at 1 µM ([1]; 144 h, read-out: root length relative to plants grown on DMSO): ~25%
- activity at 1 µM ([1]; read-out: root length relative to plants grown on normal media): ~20%
- hypocotyl phenotype of seedlings grown under dark condition ([1]; dark-grown, dosage dependent): shorter and swollen hypocotyls
- root growth arrest ([1]; wild type plants, 5 μM): completely arrests root growth
- root phenotype of seedlings grown on media with compound ([1]; wildtype, dosage dependent): shorter and swollen roots
- trafficking of cargo proteins PIN2 and BRI1 [2]: did not significantly affect the trafficking
- locations of general organelle markers (ER, Golgi, TGN) ([2]; 2 hours of 5 μM ES20 treatment (FIGS. 9A, 9B)): unaffected
- density of plasma membrane localized CesA6 ([3]; root epidermal cells, short-term ES20 treatment): significantly reduced
- numbers of SmaCCs that contain CesA6 ([3]; short-term ES20 treatment): significantly increased
- CSC delivery to the plasma membrane (FRAP) ([3]; versus DMSO control): significantly lower than the DMSO control
- sensitivity of any1 plants to ES20 [4]: less sensitive to ES20
- activity at 1 µM [5]: ~80%
- Kd [6]: 15.4 ± 5.9 µM
- sensitivity of fra5 plants to ES20 [7]: reduced sensitivity to ES20
- tobacco pollen tube growth (tobacco pollen tube): inhibited tobacco pollen tube growth
- growth inhibition of horseweed (horseweed): significantly inhibit the growth
- growth inhibition of tomato (tomato): significantly inhibit the growth
- content of crystalline cellulose relative to seedlings grown in the absence of ES20 [8]: about 50%
